target: T1, human macrophage elastase (HME/hMMP-12) (Homo sapiens, UniProt P39900); assay: In vitro HME inhibition test (standard / high-sensitivity), without BSA; format: biochemical; conditions: absence of serum albumin (BSA)
T1 construct: 0.5 nM HME; purchased R&D Systems 917-MP
From the text: The activity of the compounds according to the invention towards HME (MMP-12) is ascertained in an in vitro inhibition test. The HME-mediated amidolytic cleavage of a suitable peptide substrate leads herein to a fluorescent light increase. The signal intensity of the fluorescent light is directly proportional to the enzyme activity. The active concentration of a test compound at which half of the enzyme is inhibited (50% signal intensity of the fluorescent light) is given as IC50 value.
In a 384 hole microtiter plate, in a test volume of in total 41 μl of the test buffer (0.1 M HEPES pH 7.4, 0.15 M NaCl, 0.03 M CaCl2, 0.004 mM ZnCl2, […], 0.005% Brij®), the enzyme (0.5 nM HME; R&D Systems, 917-MP, autocatalytic activation according to the manufacturer's instructions) and the intramolecularly quenched substrate [5 μM Mca-Pro-Leu-Gly-Leu-Glu-Glu-Ala-Dap(Dnp)-NH2; Bachem, M-2670] are incubated in the absence and presence of the test substance (as solution in DMSO) for two hours at 37° C. The fluorescent light intensity of the test batches is measured (excitation 323 nm, emission 393 nm). The IC50 values are ascertained by plotting the fluorescent light intensity against the active ingredient concentration.
If subnanomolar IC values are produced for high potent test substances in the standard HME inhibition test described above, then a modified test is used for their more precise determination. Here, a ten-fold lower enzyme concentration is used (final concentration e.g. 0.05 nM), in order to achieve an increased sensitivity of the test. The incubation time of the test is accordingly chosen to be longer (e.g. 16 hours).
Table 1 below gives the IC50 values from these HME inhibition tests for the working examples of the present invention and also for two structurally related comparison compounds from the prior art (as racemate or separated enantiomers)→(sometimes as average values from several independent individual determinations and rounded to two significant places). The IC50 values were determined for racemates and enantiomers from differently generated DMSO stock solutions. Whereas an automatically created DMSO stock solution from the internal substance logistics was used for racemates by means of a standard method, for enantiomers and for a more precise direct comparison of the enantiomers with one another, in each case a freshly produced, manually prepared DMSO stock solution was used.

T1 sequence (P39900 106-470): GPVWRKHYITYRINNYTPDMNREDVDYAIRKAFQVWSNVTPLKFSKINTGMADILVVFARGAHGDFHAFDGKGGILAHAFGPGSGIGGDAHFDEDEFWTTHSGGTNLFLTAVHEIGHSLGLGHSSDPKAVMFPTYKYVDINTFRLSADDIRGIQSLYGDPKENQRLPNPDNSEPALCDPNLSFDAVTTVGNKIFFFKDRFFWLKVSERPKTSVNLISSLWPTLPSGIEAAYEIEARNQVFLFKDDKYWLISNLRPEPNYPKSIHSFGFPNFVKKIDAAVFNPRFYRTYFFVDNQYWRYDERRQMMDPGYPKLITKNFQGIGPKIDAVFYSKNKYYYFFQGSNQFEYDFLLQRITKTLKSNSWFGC

| SMILES | IC50 [nM] |
| --- | --- |
| O=C(O)[C@@H]1[C@@H](Cn2nnc3ccccc3c2=O)CC[C@H]1C(=O)c1ccc(-c2ccc(Cl)cc2)cc1 (single isomer, unassigned; enantiomer 1) [Comparative Example A-2, (1RS,2RS,5SR)-2-[(4′-chlorobiphenyl-4-yl)carbonyl]-5-[(4-oxo-1,2,3-benzotriazin-3(4H)-yl)methyl]cyclopentanecarboxylic acid (enantiomer 1)] | 66 |
| CCCCCOc1ccc(C(=O)CC(CCn2nnc3ccccc3c2=O)C(=O)O)cc1 (single isomer, unassigned; enantiomer 2) [Comparative Example B-3, (−)-4-Oxo-2-[2-(4-oxo-1,2,3-benzotriazin-3(4H)-yl)ethyl]-4-[4-(pentyloxy)phenyl]butanoic acid (enantiomer 2)] | 160 |
| O=C(O)[C@@H]1[C@@H](Cn2nnc3ccccc3c2=O)CC[C@H]1C(=O)c1ccc(OCc2ccccc2)cc1 [Example 3, (−)-(1R,2R,5S)-2-[4-(Benzyloxy)benzoyl]-5-[(4-oxo-1,2,3-benzotriazin-3(4H)-yl)methyl]cyclopentanecarboxylic acid] | 14 |

Reference: patent US20170119776A1, “CHIRAL 2,5-DISUBSTITUTED CYCLOPENTANECARBOXYLIC ACID DERIVATIVES AND USE THEREOF” (BAYER PHARMA AKTIENGESELLSCHAFT, priority 2014, published 2017)
